Data published in the NIST ThermoML archive (doi:10.1021/je034162x).

Conditions: 101.33 kPa, Liquid, Hot wire method

C1=CCCC1 [cyclopentene]
Conditions	thermal conductivity [W/m/K]	thermal diffusivity [m2/s]
258.72 K	0.1491	–
258.94 K	0.1489	–
259.1 K	0.1488	–
259.64 K	–	1.13e-07
260.25 K	–	1.12e-07
260.69 K	–	1.12e-07
276.99 K	0.1409	–
277.23 K	0.1407	–
277.4 K	0.1406	–
277.93 K	–	1.05e-07
278.57 K	–	1.05e-07
279.02 K	–	1.05e-07
294.92 K	0.133	–
295.16 K	0.1328	–
295.33 K	0.1327	–
295.88 K	–	9.78e-08
296.54 K	–	9.78e-08
296.99 K	–	9.74e-08
312.58 K	0.1258	–
312.84 K	0.1256	–
313.02 K	0.1255	–
313.55 K	–	9.09e-08
314.21 K	–	9.08e-08
314.67 K	–	9.05e-08

CC1CCCC1 [methylcyclopentane]
Conditions	thermal conductivity [W/m/K]	thermal diffusivity [m2/s]
258.71 K	0.1273	–
258.96 K	0.1271	–
259.11 K	0.127	–
259.52 K	–	9.4e-08
260.16 K	–	9.37e-08
260.57 K	–	9.34e-08
277 K	0.1212	–
277.24 K	0.1211	–
277.41 K	0.121	–
277.86 K	–	8.8e-08
278.49 K	–	8.85e-08
278.91 K	–	8.82e-08
294.9 K	0.1155	–
295.15 K	0.1154	–
295.32 K	0.1153	–
295.76 K	–	8.24e-08
296.37 K	–	8.25e-08
296.8 K	–	8.24e-08
312.57 K	0.1101	–
312.82 K	0.11	–
312.99 K	0.1099	–
313.44 K	–	7.77e-08
314.04 K	–	7.73e-08
314.46 K	–	7.71e-08

[2H]c1c([2H])c([2H])c(C([2H])([2H])[2H])c([2H])c1[2H] [toluene-d8]
Conditions	thermal conductivity [W/m/K]	thermal diffusivity [m2/s]
259.69 K	0.1349	–
259.91 K	0.1348	–
260.06 K	0.1348	–
260.47 K	–	8.33e-08
261.03 K	–	8.36e-08
261.42 K	–	8.36e-08
279.35 K	0.1298	–
279.57 K	0.1297	–
279.73 K	0.1296	–
280.14 K	–	7.9e-08
280.69 K	–	7.9e-08
281.08 K	–	7.88e-08
296.9 K	0.1251	–
297.13 K	0.1249	–
297.28 K	0.1249	–
297.69 K	–	7.52e-08
298.25 K	–	7.51e-08
298.64 K	–	7.51e-08
315.84 K	0.12	–
316.08 K	0.1199	–
316.24 K	0.1198	–
316.65 K	–	7.15e-08
317.21 K	–	7.13e-08
317.61 K	–	7.11e-08
326.47 K	0.1173	–
326.7 K	0.1172	–
326.87 K	0.117	–
327.28 K	–	6.95e-08
327.85 K	–	6.93e-08
328.25 K	–	6.9e-08

C=CCCCCC [1-heptene]
Conditions	thermal conductivity [W/m/K]	thermal diffusivity [m2/s]
262.46 K	0.1325	–
262.75 K	0.1324	–
262.97 K	0.1324	–
263.83 K	–	9.06e-08
264.74 K	–	9.11e-08
265.37 K	–	9.1e-08
280.48 K	0.1268	–
280.8 K	0.1267	–
281.03 K	0.1264	–
281.93 K	–	8.66e-08
282.87 K	–	8.67e-08
283.53 K	–	8.66e-08
297.36 K	0.1213	–
297.71 K	0.1213	–
297.95 K	0.1212	–
298.89 K	–	8.27e-08
299.87 K	–	8.27e-08
300.55 K	–	8.25e-08
320.47 K	0.1144	–
320.83 K	0.1143	–
321.08 K	0.1142	–
322.07 K	–	7.76e-08
323.1 K	–	7.76e-08
323.81 K	–	7.73e-08

C1=CC2C=CC1C2 [bicyclo[2.2.1]hepta-2,5-diene]
Conditions	thermal conductivity [W/m/K]	thermal diffusivity [m2/s]
258.57 K	0.1485	–
258.7 K	0.1484	–
258.8 K	0.1484	–
258.99 K	–	1.08e-07
259.32 K	–	1.08e-07
259.55 K	–	1.09e-07
276.78 K	0.1426	–
276.89 K	0.143	–
276.97 K	0.1429	–
277.21 K	–	1.02e-07
277.47 K	–	1.02e-07
277.66 K	–	1.01e-07
296.23 K	0.1371	–
296.35 K	0.1369	–
296.43 K	0.1368	–
296.61 K	–	9.43e-08
296.89 K	–	9.44e-08
297.1 K	–	9.45e-08
313.27 K	0.1315	–
313.38 K	0.1314	–
313.46 K	0.1313	–
313.63 K	–	8.85e-08
313.9 K	–	8.86e-08
314.1 K	–	8.86e-08
331.81 K	0.1256	–
331.91 K	0.1255	–
331.98 K	0.1254	–
332.15 K	–	8.25e-08
332.4 K	–	8.25e-08
332.57 K	–	8.24e-08

Cc1ccc(C)cc1 [1,4-dimethylbenzene]
Conditions	thermal conductivity [W/m/K]	thermal diffusivity [m2/s]
287.33 K	0.1296	–
287.55 K	0.1295	–
287.73 K	0.1294	–
288.19 K	–	8.96e-08
288.74 K	–	8.89e-08
289.19 K	–	8.92e-08
294.03 K	0.1278	–
294.27 K	0.1278	–
294.44 K	0.1277	–
294.86 K	–	8.78e-08
295.48 K	–	8.82e-08
295.9 K	–	8.82e-08
311.71 K	0.1234	–
311.94 K	0.1232	–
312.11 K	0.1231	–
312.56 K	–	8.41e-08
313.14 K	–	8.38e-08
313.56 K	–	8.36e-08
328.75 K	0.1191	–
328.99 K	0.119	–
329.16 K	0.1189	–
329.6 K	–	8.03e-08
330.21 K	–	8.02e-08
330.63 K	–	8.01e-08

[2H]c1c([2H])c([2H])c([2H])c([2H])c1[2H] [benzene-d6]
Conditions	thermal conductivity [W/m/K]	thermal diffusivity [m2/s]
280.76 K	0.1398	–
281.06 K	0.1397	–
281.26 K	0.1396	–
282.09 K	–	8.1e-08
282.98 K	–	8.15e-08
283.58 K	–	8.12e-08
291.53 K	0.1364	–
291.83 K	0.1363	–
292.04 K	0.1362	–
292.92 K	–	7.93e-08
293.83 K	–	7.96e-08
294.46 K	–	7.95e-08
304.05 K	0.1323	–
304.37 K	0.1322	–
304.59 K	0.1321	–
305.49 K	–	7.7e-08
306.42 K	–	7.69e-08
307.08 K	–	7.69e-08
316.34 K	0.1284	–
316.66 K	0.1283	–
316.89 K	0.1282	–
317.82 K	–	7.46e-08
318.77 K	–	7.45e-08
319.44 K	–	7.44e-08
326.75 K	0.1252	–
327.08 K	0.125	–
327.31 K	0.1249	–
328.26 K	–	7.25e-08
329.22 K	–	7.23e-08
329.88 K	–	7.2e-08

Cc1cccc(C)c1 [1,3-dimethylbenzene]
Conditions	thermal conductivity [W/m/K]	thermal diffusivity [m2/s]
258.17 K	0.1393	–
258.42 K	0.1391	–
258.58 K	0.1391	–
259.01 K	–	9.79e-08
259.67 K	–	9.79e-08
260.12 K	–	9.82e-08
275.04 K	0.1353	–
275.28 K	0.1353	–
275.44 K	0.1352	–
275.95 K	–	9.46e-08
276.57 K	–	9.45e-08
277 K	–	9.44e-08
287.36 K	0.1323	–
287.6 K	0.1322	–
287.77 K	0.132	–
288.27 K	–	9.16e-08
288.91 K	–	9.19e-08
289.35 K	–	9.17e-08
294.07 K	0.1305	–
294.32 K	0.1305	–
294.49 K	0.1304	–
294.99 K	–	9.03e-08
295.64 K	–	9.06e-08
296.09 K	–	9.03e-08
311.74 K	0.126	–
312 K	0.1259	–
312.18 K	0.1258	–
312.68 K	–	8.65e-08
313.34 K	–	8.66e-08
313.8 K	–	8.64e-08
328.79 K	0.1218	–
329.04 K	0.1216	–
329.22 K	0.1215	–
329.74 K	–	8.28e-08
330.36 K	–	8.22e-08
330.83 K	–	8.22e-08
